Experimental data taken from PubChem BioAssay (NCI).
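Cells were grown in 96-well plates and exposed to each compound for 48 hours at five concentrations; endpoints were interpolated linearly between bracketing concentrations, or set to the highest concentration if not reached. At the TGI there is no net growth.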

Legend:
Test in all cases: inhibition of tumour cell growth, NCI panel, 48 h
HCC-2998 colon = system: HCC-2998 colon
HCT-116 colon = system: HCT-116 colon
HT29 colon = system: HT29 colon
HOP-92 NSCLC = system: HOP-92 NSCLC
BT-549 breast = system: BT-549 breast
CCRF-CEM leukemia = system: CCRF-CEM leukemia
HCT-15 colon = system: HCT-15 colon
SF-268 CNS = system: SF-268 CNS
SK-MEL-2 melanoma = system: SK-MEL-2 melanoma
786-0 renal = system: 786-0 renal
HS 578T breast = system: HS 578T breast
MOLT-4 leukemia = system: MOLT-4 leukemia
MCF7 breast = system: MCF7 breast
SF-295 CNS = system: SF-295 CNS
A549 NSCLC = system: A549 NSCLC
MALME-3M melanoma = system: MALME-3M melanoma
MDA-MB-231 breast = system: MDA-MB-231 breast
U251 CNS = system: U251 CNS
NCI-H522 lung = system: NCI-H522 lung

| SMILES | TGI (HCC-2998 colon) | TGI (HCT-116 colon) | TGI (HT29 colon) | TGI (HOP-92 NSCLC) | TGI (BT-549 breast) | TGI (CCRF-CEM leukemia) | TGI (HCT-15 colon) | TGI (SF-268 CNS) | TGI (SK-MEL-2 melanoma) | TGI (786-0 renal) | TGI (HS 578T breast) | TGI (MOLT-4 leukemia) | TGI (MCF7 breast) | TGI (SF-295 CNS) | TGI (A549 NSCLC) | TGI (MALME-3M melanoma) | TGI (MDA-MB-231 breast) | TGI (U251 CNS) | TGI (NCI-H522 lung) |
| --- | --- | --- | --- | --- | --- | --- | --- | --- | --- | --- | --- | --- | --- | --- | --- | --- | --- | --- | --- |
| CCCNC(=O)Cn1c2c(c3ccccc31)CCCC2 | > 100 µM | > 100 µM | > 100 µM | > 100 µM | > 100 µM | > 100 µM | > 100 µM | > 100 µM | > 100 µM | > 100 µM | 68.8 µM | > 100 µM | > 100 µM | > 100 µM | > 100 µM | > 100 µM | – | – | – |
| CC(=O)/C(=C/N1CC(=O)NC1=S)C(=O)Nc1ccccc1C | > 100 µM | > 100 µM | > 100 µM | > 100 µM | > 100 µM | – | > 100 µM | > 100 µM | > 100 µM | > 100 µM | – | > 100 µM | – | > 100 µM | > 100 µM | – | > 100 µM | > 100 µM | – |
| CCc1cc2c(cc1C(=O)CCC(=O)O)CC1(C2)Cc2cc(CC)c(C(=O)CCC(=O)O)cc2C1 | > 100 µM | > 100 µM | > 100 µM | > 100 µM | – | > 100 µM | > 100 µM | > 100 µM | > 100 µM | > 100 µM | > 100 µM | > 100 µM | > 100 µM | > 100 µM | > 100 µM | > 100 µM | > 100 µM | > 100 µM | > 100 µM |
| C[C@@H](c1ccccc1)N1C[C@@H](c2ccc3c(c2)OCO3)[C@@H]2C(=O)CCC[C@@H]21 | 76.7 µM | > 100 µM | > 100 µM | > 100 µM | – | > 100 µM | > 100 µM | > 100 µM | 94.8 µM | > 100 µM | > 100 µM | 77.6 µM | 71.5 µM | > 100 µM | > 100 µM | 87.5 µM | > 100 µM | > 100 µM | > 100 µM |
| CC1CN=C(N(C(=O)Nc2ccc(Cl)cc2)c2cccc(Cl)c2)S1 (stereo not drawn) | 84.6 µM | > 100 µM | > 100 µM | 65.4 µM | – | > 100 µM | > 100 µM | > 100 µM | 44.9 µM | > 100 µM | > 100 µM | – | > 100 µM | > 100 µM | > 100 µM | > 100 µM | > 100 µM | > 100 µM | – |
| COc1ccc(N[C@H](CS(=O)c2ccc(C)cc2)C(F)(F)F)cc1 (stereo partly drawn) | > 100 µM | > 100 µM | > 100 µM | > 100 µM | > 100 µM | > 100 µM | > 100 µM | – | > 100 µM | > 100 µM | – | > 100 µM | > 100 µM | > 100 µM | > 100 µM | > 100 µM | > 100 µM | > 100 µM | > 100 µM |
| O=C1C2CCCC2N1Cc1ccccc1 (stereo not drawn) | > 100 µM | > 100 µM | > 100 µM | > 100 µM | – | > 100 µM | > 100 µM | > 100 µM | – | > 100 µM | > 100 µM | > 100 µM | > 100 µM | > 100 µM | – | – | – | – | > 100 µM |
| COc1nc2c(c(=O)[nH]1)N=C(c1ccccc1)CC(c1ccccc1)N2 (stereo not drawn) | > 100 µM | > 100 µM | > 100 µM | > 100 µM | > 100 µM | > 100 µM | – | – | > 100 µM | > 100 µM | – | 96.9 µM | > 100 µM | > 100 µM | > 100 µM | > 100 µM | 81.6 µM | > 100 µM | > 100 µM |
| Cc1ccc(C(=O)C2C=C(c3ccc(C)cc3)SC3C=CCC32)cc1 (stereo not drawn) | – | 27.8 µM | 43.1 µM | 34 µM | 37.3 µM | 38.3 µM | 47.9 µM | – | 36.8 µM | 38.3 µM | 73.8 µM | 44.9 µM | – | 39.9 µM | 57.1 µM | 34.1 µM | 43.8 µM | 32.5 µM | 29.6 µM |
| Cc1cc2c3c(nc2c2cc[nH]c(C)c12)CCCC3 | 3.43 µM | 3.35 µM | 6.25 µM | 7.3 µM | – | 6.48 µM | 3.54 µM | 14 µM | 3.2 µM | 3.04 µM | 4.41 µM | 4.32 µM | 3.02 µM | 3.93 µM | 4.53 µM | 2.74 µM | 3.17 µM | 3.83 µM | – |
| CCSC1=N/C(=C\c2ccco2)C(Nc2ccc(C)cc2)=N1 | – | > 100 µM | > 100 µM | > 100 µM | – | > 100 µM | > 100 µM | > 100 µM | > 100 µM | > 100 µM | > 100 µM | > 100 µM | > 100 µM | > 100 µM | > 100 µM | > 100 µM | > 100 µM | > 100 µM | > 100 µM |
